Measurements taken from the NIST ThermoML archive (doi:10.1021/je400158p).
Numbers after ± are expanded uncertainties.

Assay: excess molar enthalpy (molar enthalpy of mixing); xn = mol fraction of the nth substance listed
Details: 298.15 K, 101 kPa, Liquid, Calvet calorimetry

Row | Structure (SMILES) | excess molar enthalpy (x1 = 0.1) | excess molar enthalpy (x1 = 0.2) | excess molar enthalpy (x1 = 0.4) | excess molar enthalpy (x1 = 0.7) | excess molar enthalpy (x1 = 0.5) | excess molar enthalpy (x1 = 0.401) | excess molar enthalpy (x1 = 0.501) | excess molar enthalpy (x1 = 0.804)
1 | CCn1cc[n+](C)c1.COP(=O)([O-])OC [1-ethyl-3-methylimidazolium dimethylphosphate] + CCO | -0.311 ± 0.00406 kcal/mol | -0.5184 ± 0.00478 kcal/mol | -0.6726 ± 0.0055 kcal/mol | -0.4333 ± 0.00406 kcal/mol | – | – | – | –
2 | CCn1cc[n+](C)c1.COP(=O)([O-])OC [1-ethyl-3-methylimidazolium dimethylphosphate] + CO | – | -0.6728 ± 0.0055 kcal/mol | -0.8537 ± 0.00669 kcal/mol | -0.5566 ± 0.00478 kcal/mol | – | – | – | –
3 | CCn1cc[n+](C)c1.COP(=O)([O-])OC [1-ethyl-3-methylimidazolium dimethylphosphate] + O | -0.881 ± 0.00813 kcal/mol | -1.3 ± 0.0105 kcal/mol | -1.463 ± 0.0115 kcal/mol | -1.008 ± 0.00813 kcal/mol | -1.381 ± 0.011 kcal/mol | – | – | –
4 | OCCOCCO [diethylene glycol] + O | – | -0.291 ± 0.00335 kcal/mol | – | – | – | -0.291 ± 0.00335 kcal/mol | -0.275 ± 0.00311 kcal/mol | -0.111 ± 0.00263 kcal/mol
